Tests used:
[1] = system: B16F10 murine melanoma cells; assay: Amph-FITC labeling of tumor cells in vitro, flow cytometry; format: cell-based; details: incubated 30 min at 37° C.
Description: (§1) Amph-FITC labeling and cytotoxicity studies: For in vitro labeling of tumor cells with amph-FITC, tumor cells were washed with 1×PBS and incubated at a cell density of 10^6 cells/mL for 30 minutes at 37° C. with DSPE-PEGx-FITC, where x=0, 1, 2, 3.4, 5, or 10 kDa (Creative PEGworks) in PBS. For cocultures, target cells were labeled simultaneously with 100 nM amph-FITC and CellTrace Violet (ThermoFisher); 20,000 target cells were seeded per well in a 96-well flat-bottom plate with CAR T cells at the indicated effector-to-target ratios. Following a 16 hr incubation, cells were stained with SYTOX red (ThermoFisher) for flow cytometry, and IFN-γ in the supernatant was quantified using a Mouse IFN gamma Uncoated ELISA Kit (Invitrogen).

[2] = system: MC38 murine colon carcinoma cells; assay: as above; format: cell-based; details: 100 nM, 30 min at 37° C.
Description: as §1

B16F10 tumors [3] = assay: In vivo therapy study, tumor growth and survival; design: species or system C57BL/6 mice; details: addition of amph-FITC vaccine boosting to E2-28z CAR T cells + intratumoral amph-FITC
Excerpt: (§2) C57BL/6 WT, CD45.1^+, Batf3 KO, and Rag1 KO mice (Jackson Laboratory, 6 to 8 weeks old) were inoculated with 10^6 B16F10, 10^6 MC38, 10^6 TC-1, or 3×10^6 CT-2A tumor cells subcutaneously at the flank. Once tumors grew to ˜25 mm^2 in area, mice underwent a non-myeloablative 5 Gy dose of TBI administered by a [^137Cs] gamma radiation source, 24 hr prior to adoptive transfer of 10^7 CD45.1+ CAR T cells IV via the tail vein. One day later, mice were vaccinated subcutaneously at the tail base with 10 nmol DSPE-PEG2k-FITC (Creative PEGworks) and 25 μg cyclic di-GMP (Invivogen), and vaccinated for 3 total doses, once weekly. Intratumoral injection of 10 nmol amph-FITC was administered beginning the day after the first vaccination, and continuing every 3 days.
(§3) For all studies, tumor progression was monitored by caliper measurements. Survival was evaluated over time until tumors exceeded 200 mm^2 in area, were severely ulcerated >1 week, or experienced >20% weight loss. To monitor trafficking of Fluc-expressing CAR T cells, mice were injected subcutaneously at the scruff with 150 mg/kg D-luciferin K^+ Salt (Perkin-Elmer) and imaged on a Xenogen IVIS Spectrum. Prior to imaging, C57BL/6 mice were depilated on their back to improve signal sensitivity.

CT-2A tumors [4] = assay: In vivo therapy study, tumor growth and survival; design: species or system C57BL/6 mice; details: intratumoral once every 6 days instead of every 3 days
Excerpt: as §2, §3

B16F10 tumors [5] = assay: CAR T cell expansion and tumor homing by bioluminescence imaging; format: in vivo, C57BL/6 mice
Excerpt: as §2, §3

CT-2A glioblastoma cells = assay: Amph-FITC labeling of tumor cells in vitro, flow cytometry; format: cell-based, murine; details: 100 nM, 30 min at 37° C.
Description: as §1

B16F10 tumors [6] = system: B16F10 tumors
Description: For cellular localization studies, MC38 tumor-bearing mice were injected intratumorally with 10 nmol DSPE-PEG2k-FITC, and 24 hr later tumors were enzymatically digested at 37° C. for 30 min with 1 mg/mL collagenase D and 0.2 mg/mL DNase I in complete RPMI media before mechanical dissociation through a 70 μm cell strainer.

[7] = Toxicity of amph-FITC and FITC CAR T therapy in tumor-bearing mice; format: in vivo, C57BL/6 mice
Excerpt: as §2, §3

B16F10 melanomas = assay: Bilateral flank tumors, i.t. amph-FITC only in the 1° lesion; format: in vivo, C57BL/6 mice
Excerpt: as §2, §3

CT-2A tumors [8] = assay: as above; format: in vivo, C57BL/6 mice; details: FITC-CAR T cells, amph-FITC vaccination, i.t. amph-FITC right flank only
Excerpt: as §2, §3

MSTO-211H tumors = assay: Xenograft study with human CAR T cells and intratumoral amph-FITC; format: in vivo
Description: For xenograft studies, 6- to 12-week-old NOD.Cg-Prkdc^scidIL2rg^tm1Wj1/SzJ (NSG) mice (Jackson Laboratory) were inoculated with 3×10^6 MSTO-211H cells subcutaneously at the flank. Once tumors grew to ˜25 mm^2, mice were adoptively transferred with 10^7 CAR T cells IV via the tail vein. Intratumoral injection of 10 nmol amph-FITC was administered beginning the day after adoptive transfer, and continuing every 3 days.
as §3
For quantification of human CAR T cells in the peripheral blood, spleen, and tumor, tissues were processed as described above, then stained with LIVE/DEAD Aqua, BUV496 anti-CD4 (clone SK3/Leu3a, BD Biosciences), BUV805 anti-CD8α (clone SK1, BD Biosciences), PE anti-myc tag (clone 9B11, Cell Signaling), and APC-Cy7 anti-CD45 (clone 2D1, BioLegend).

CT-2A tumors [9] = assay: T cell infiltration of treated tumors, immunohistochemistry; format: in vivo, C57BL/6 mice; details: day 12, i.t. amph-FITC ± amph-FITC vaccine
Excerpt: as §2

[10] = injection of only the primary tumor

Which “FITC exposed on the cell surfaces (anti-FITC antibody staining)” value [1] does the source give for “1,2-distearoyl-sn-glycero-3-phosphoethanolamine-PEG-FITC [amph-FITC]” here?
Its value is “exposed on the cell surfaces”.

And the “association of amph-FITC with the cells (total FITC)” value [1]?
Its value is “dose-dependent association”.

And the “association with and exposure on cell surfaces” value [2]?
The value was “associate with and be exposed on the surfaces”.

What about the “increase of median survival” value (B16F10 tumors [3]) of the same substance?
The value was 3 days.

And the “therapeutic effect at reduced injection frequency” value (CT-2A tumors [4])?
Its value is “did not reduce the therapeutic effect”.

What about the “impact on overall T cell expansion or accumulation at the tumor site” value (B16F10 tumors [5]; addition of the vaccine boost to intratumoral amph-FITC) of the same substance?
The value was “did not have a significant impact”.

And the “CAR T cell expansion (bioluminescence)” value (B16F10 tumors [5]; i.t. amph-FITC with E2-28z CAR T cells)?
The value was “triggered CAR T cell expansion”.

And the “CAR T cell accumulation at the tumor site” value (B16F10 tumors [5]; intratumoral amph-FITC compared with amph-FITC vaccination alone)?
The value was “greater accumulation at the tumor site”.

And the “association with and exposure on cell surfaces” value (CT-2A glioblastoma cells)?
The value was “associate with and be exposed on the surfaces”.

What about the “cellular distribution of FITC labeling after lymphodepletion” value (B16F10 tumors [6]; 5 Gy TBI 24 hours prior to amph-FITC injection) of the same substance?
Its value is “favored labeling of cancer cells in an even greater proportion”.

What about the “proportion of each cell type bearing extracellularly exposed FITC” value (B16F10 tumors [6]; after 1 hour, cancer cells and host cells) of the same substance?
The value was 40-60%.

And the “proportion of cells still bearing exposed FITC” value (B16F10 tumors [6]; at 24 hours)?
Its value is 20-40%.

And the “cell type numerically dominant among cells surface-decorated with FITC” value (B16F10 tumors [6]; by 24 hours)?
Its value is “majority of cells surface-decorated with FITC were the cancer cells”.

What about the body weight ([7]; CAR T cells with intratumoral amph-FITC and amph-FITC vaccination, versus untreated control) of the same substance?
Its body weight is “no weight loss”.

What about the “inflammation of the skin surrounding treated tumors” value ([7]; local i.t. administration during treatment) of the same substance?
Its value is “no obvious inflammation”.

And the “growth of the treated primary tumor” value (B16F10 melanomas; [10])?
The value was “slowed growth”.

And the “progression of the untreated lesions” value (B16F10 melanomas; [10])?
The value was “trend toward slowed progression”.

And the overall survival (B16F10 melanomas; over untreated animals)?
Its overall survival is “substantial increases in overall survival”.

And the overall survival (CT-2A tumors [8])?
Its overall survival is “substantially improved”.

What about the “progression of injected (1°) and non-injected (2°) tumors” value (CT-2A tumors [8]) of the same substance?
The value was “substantially slowed progression”.

What about the “graft vs. host disease” value (MSTO-211H tumors; mouse, in vivo) of the same substance?
Its value is “exacerbated GVHD”.

And the “relative expansion of CAR T cells induced by amph-FITC treatment” value (MSTO-211H tumors; whole mouse radiance)?
The value was 13.3 fold.

What about the “T cell infiltration of treated tumors” value (CT-2A tumors [9]) of the same substance?
Its value is “substantial T cell infiltration throughout the tumor”.

Reference: patent publication US20230372395A1, “CAR CELLS TARGETING AN INSERTED LIGAND” (Massachusetts Institute of Technology, priority 2022, published 2023)
